# “Also recorded” adds a separate entry of the source. Like-named read-outs stand apart in the source and are kept apart here.
# Experiments:
# [1] = test system: Punta toro; details: literature (Smee et al.; Sidwell et al.); cited from earlier work
# [2] = test system: mice; details: cited from earlier work
# [3] = test system: cowpox; details: cidofovir 30 mg/kg i.p.; Smee et al. 2002; cited from earlier work
# [4] = test system: Mouse bone marrow-derived macrophages (BMDM); assay: Cytokine production of TLR ligand-stimulated BMDM with IMPDH inhibitors (ELISA); assay type: cell-based; details: for IL-12 production with TOG plus IMPDH inhibitor: TOG 100 μM, mizoribine 10 μM or mizoribine base 10 μM; for cytokine production induced by several different TLR-L: mouse bone marrow derived macrophages
# [5] = test system: splenocytes; assay: Type I interferon production by splenocytes (bioassay); assay type: cell-based, mice; details: for TLR7 mediated type I interferon production in splenocytes: TOG or R-848 with or without Mb 10 μM, 24 hrs
# Experimental: (§1) Type I interferon in serum was measured and results are shown.
# Splenocytes of WT or SCID mice were stimulated with the indicated stimuli and Type I interferon was by bioassay.
# (FIG. 20.) Splenocytes of WT or SCID mice were stimulated with the indicated stimuli and Type I interferon levels were determined by bioassay.
# [6] = test system: Type I interferon in serum; assay: Type I interferon in serum of mice injected with TOG and Mb; assay type: in vivo; details: mice injected intravenously with TOG 250 μg and increasing doses of Mb
# Experimental: as §1
# [7] = test system: human peripheral blood mononuclear cells; assay: Cytokine production of TLR-L-stimulated human peripheral blood mononuclear cells with IMPDH inhibitors; assay type: cell-based
# [8] = test system: IRF-1, IRF-3, IRF-7, NF-kB, STAT-1; assay: Activation of IRFs, NF-kB and STAT-1 in BMDM (immunoblotting of nuclear extracts, EMSA); assay type: cell-based, mouse
# [9] = test system: human peripheral blood leukocytes (hPBL); assay: IL-12 production in human peripheral blood leukocytes (ELISA); assay type: cell-based; details: TOG 100 μM, 24 hours
# [10] = test system: STAT-1; assay: STAT-1 activation in hPBL (western blotting); assay type: cell-based, human; details: by TOG, R-848 1 μM plus increasing doses, 3 hrs
# Experimental: In the right panel, hPBL were stimulated with R-848 (1 μM) plus increasing doses of Mb or ribavirin (Rb) for 3 hrs and activation of STAT-1 was measured by western blotting. β-actin levels were measured as a control
# [11] = test system: DNA dependent protein kinase catalytic subunit (DNA-PKcs); assay: Activation of DNA-PK in BMDM (in vitro kinase assay, GST-p53 substrate or autophosphorylation); assay type: cell-based
# Experimental: IMPDH inhibitors and TLR7 activate DNA-PK. BMDM were stimulated with the Mb alone, TOG alone, or a combination of Mb and TOG. Activation of DNA-PK was measured by in vitro kinase assay using a GST-p53 substrate or DNA-PKcs autophosphorylation.
# Activation of DNA-PK was measured by in vitro kinase assay using a GST-p53 substrate or DNA-PKcs autophosphorylation.
# [12] = test system: bone marrow derived dendritic cells (DC's); assay: TLR7 signaling in bone marrow derived dendritic cells; assay type: cell-based; details: DC's stimulated by R-848 with Mb
# Experimental: Bone marrow derived DC's were stimulated by R-848 with or without Mb for the indicated time period, and activation of NF-κB, MAP kinases (p38 and EKR) was measured. Actin levels were measured as a control.
# [13] = test system: Salmonella; details: human macrophages treated overnight with IFN-γ 100 ng/ml; over 24 hours; cited from earlier work
# [14] = test system: Listeria monocytogenes; assay: Listeria infection in mice pretreated with TLR ligands; assay type: in vivo; details: 10 μg three days before infection with 7×10^5 Listeria monocytogenes, observed nine days
# Experimental: Groups of six mice were injected with 10 μg of either ISS-ODN, Pam3Cys, or polyI:C three days before infection with 7×10^5 Listeria monocytogenes. […] 5 mice also each received 10 μg of R-848, 24 hours before infection. […]
# [15] = test system: murine bone marrow mononuclear cells; assay: Cytokine responses of murine bone marrow mononuclear cells to TLR ligands (ELISA); assay type: cell-based; details: 48 hours, supernatant ELISA, PolyI:C 100 μg/ml, LPS 1 μg/ml, ISS-ODN 10 μg/ml, n.d.=none detected
# Experimental: The cytokine responses of murine bone marrow mononuclear cells were compared to a TLR2-L (PGS), a TLR3-L (polyI:C), a TLR4-L(LPS), and a TLR9-L (ISS-ODN). IL-12, IL-10, IL-6, IL-1b, and KC (a chemokine) were assayed by ELISA (See 2.1.b Results).
# Bone marrow cells were cultured in triplicate at 5×10^5 cells/ml with each TLR ligand in dose response studies covering a 3 log concentration range. The cells were cultured for 48 hours and supernatant cytokine levels were analyzed by ELISA. The minimal optimal concentration for each reagent was reported with a three fold increase in TLR ligand concentration not leading to any significant increase in cytokine production. Results are reported as means ± standard errors. n.d.=none detected
# [16] = test system: BALB/c mice; assay: Systemic adjuvant activity: intradermal immunization with ovalbumin (OVA) and TLR ligand; assay type: in vivo
# Experimental: Recently, the systemic adjuvant activities of other TLR-Ls were evaluated.
# Six-week-old BALB/c mice (4 per group) were intradermally immunized with ovalbumin (OVA) (20 ug) and TLR ligand on day 0 and day 7. During week 6, serum was collected and splenocytes were harvested and cultured with OVA (50 ug/ml). After 3 days, splenocyte culture supernatants were collected. Sera Ig levels and splenocyte supernatant cytokine levels were determined by ELISA. Results are reported as means ± standard errors. n.d.=none detected.
# [17] = test system: mice; assay: ISS pre-priming before β-gal immunization (splenocyte IFN-γ and CTL response); assay type: in vivo; details: ISS up to 14 days prior to β-gal, compared to β-gal alone (P≦0.05)
# Source text: FIG. 3 depicts splenocyte CTL and IFN-γ response after intradermal ISS pre-priming. Results represent the mean ± SE for four mice in each group and similar results were obtained in two other independent experiments. […] (a) IFN-γ response. […] (C) Comparison of CTL response at an effector:target ratio of 25:1.
# In this experiment, the amount of time between which a mouse exposed to an antigen can produce an immune response was examined. (FIG. 3)
# The results in FIG. 3 represent the mean ± SE for four mice in each group. Similar results were obtained in two other independent experiments. […] (A) IFN-γ response. […] (C) Comparison of CTL response at an effector:target ratio of 25:1.
# [18] = splenocytes of week 6 cultured 3 days with OVA 50 ug/ml, supernatant ELISA, same immunization, n.d.=none detected
compound,measurement,setting,value
Nc1nc2c(ccn2[C@@H]2O[C@H](CO)[C@@H](O)[C@H]2O)c(=O)[nH]1 [7-deazaguanosine],protection of mice from Punta toro virus infection,[1],protected mice from lethal infection
same,toxicity to mice,[2]; after systemic administration,remarkably non-toxic to mice
CCCCCCn1cnc2c(=O)[nH]c(N)nc21 [9-hexylguanine],protection of mice from Punta toro virus infection,[1],protected mice from lethal infection
"Nc1ccn(C[C@@H](CO)OCP(=O)(O)O)c(=O)n1 [Cidofovir, cidofovir]",lung viral titer,[3],~10^7 PFU/g of lung
same,protection of mice from death,[3],protects all mice from death
"NC(=O)c1ncn([C@@H]2O[C@H](CO)[C@@H](O)[C@H]2O)c1O [Mizoribine, mizoribine]",IL-12 production with TOG plus IMPDH inhibitor,[4]; 24 hrs,synergize with TOG
same,cytokine production induced by several different TLR-L,[4],potentiated cytokine production
same,TLR7 mediated type I interferon production in splenocytes,[5],more than two-fold
same,increase of Type I interferon in blood (serum),[6],more than 4 fold
same,cytokine production induced by several different TLR-L,[7],potentiated cytokine production
NC(=O)c1ncn([C@@H]2O[C@H](CO)[C@@H](O)[C@H]2O)n1 [Ribavirin],IL-6 production by R-848 in the presence of ribavirin,"[4]; macrophages, abolished by addition of guanosine to the media (not shown)",enhancement of IL-6 production by R-848
same,cytokine production induced by several different TLR-L,[4],potentiated cytokine production
same,cytokine induction by ribavirin alone,[4]; no TLR ligand,did not induce any cytokines
same,TLR-mediated production of IL-12 (p40) in the presence of ribavirin,"[4]; ribavirin 10, 50, 100 μM, TLR ligands TOG 100 μM, R-848 1 μM, Pam3Cys 5 μg, p(I:C) 5 μg, LPS 10 ng, ISS 5 μg, 24 hrs",enhances TLR-mediated production of IL-12 (p40) in a dose dependent manner
same,TOG-induced NF-κB activation (EMSA) and IRF-3 (western blotting),"[8]; BMDM, TOG with Rb 50 μM",enhances TOG-induced NF-κB activation and activates IRF-3 transcription factor
same,IL-12 production after stimulation with TOG,[9],enhanced the increase of IL-12 production
same,activation of STAT-1,[10],enchanced activiation
same,cytokine production induced by several different TLR-L,[7],potentiated cytokine production
same,protection of mice from Punta toro virus infection,[1],significant activity
"Nc1nc2c(sc(=O)n2[C@@H]2O[C@H](CO)[C@@H](O)[C@H]2O)c(=O)[nH]1 [TOG, 7-thia-8-oxoguanosine]","levels of nuclear IRF-1, IRF-3 and IRF-7",[8]; bone marrow cells exposed to TOG,increase markedly
same,activation of DNA-PKcs,[11]; single agents,activate DNA dependent protein kinase catalytic subunit (DNA-PKcs)
same,protection of mice from Punta toro virus infection,[1],protected mice from lethal infection; also recorded: significant activity
same,toxicity to mice,"[2]; mouse, in vivo",remarkably non-toxic to mice
NC(=O)c1[nH]cnc1O [mizoribine base],IL-12 production with TOG plus IMPDH inhibitor,[4]; 24 hrs,synergize with TOG
same,cytokine production induced by several different TLR-L,[4],potentiated cytokine production
same,dependence of IRF activation on DNA-PKcs and MyD88,[8]; cells from wild-type mice and SCID mice,via DNA-PKcs but not MyD88
same,TLR7 mediated type I interferon production in splenocytes,[5],augments TLR-7 mediated type I interferon production
same,dependence of type I interferon induction by TOG combined with Mb on DNA-PKcs,"[5]; splenocytes of WT or SCID mice, TOG 100 μM, Mb 10 μM",partially dependent on DNA-PKcs
same,increase of Type I interferon in blood (serum),[6],augments TLR-7 mediated type I interferon production
same,IL-12 production after stimulation with TOG,[9],enhanced the increase of IL-12 production
same,activation of STAT-1,[10],enchanced activiation
same,"TLR7 signaling (NF-κB, MAP kinases p38 and EKR)",[12],enhanced TLR7 signaling in DC's
same,DNA-PK activation by the combination of TOG and Mb,[11],increased phosphorylation of substrates and earlier onset of phosphorylation
same,cytokine production induced by several different TLR-L,[7],potentiated cytokine production
COc1c(C)c2c(c(O)c1C/C=C(\C)CCC(=O)O)C(=O)OC2 [mycophenolic acid],IL-12 production after stimulation with TOG,[9],enhanced the increase of IL-12 production
IFN-γ,killing of the inoculum,[13],90-99%
Pam3Cys,protection (survival) of mice from Listeria infection,[14],lived longer than controls
PolyI:C,IL-12,"[15]; 5×10^5 cells/ml, minimal optimal concentration: PGS 100 μg/ml, means ± standard errors",570 ± 62 pg/mL
same,IL-1b,[15]; PGS 100 μg/ml,148 ± 27 pg/mL
same,IL-6,[15]; PGS 100 μg/ml,2380 ± 657 pg/mL
same,IL-10,[15]; PGS 100 μg/ml,1374 ± 237 pg/mL
same,KC,"[15]; chemokine, PGS 100 μg/ml",349 ± 62 pg/mL
same,systemic adjuvant activity for vaccination,"[16]; mouse, in vivo",effective systemic adjuvants
same,IgGl,"[16]; serum, week 6, OVA 20 ug + TLR ligand i.d. day 0 and day 7, PGS 50 ug, PolyI:C 50 ug, LPS 20 ug, ISS-ODN 50 ug",18853 ± 2439 U/ml
same,IgG2a,"[16]; serum, week 6, OVA 20 ug + TLR ligand i.d. day 0 and day 7, PGS 50 ug, PolyI:C 50 ug, LPS 20 ug, ISS-ODN 50 ug, n.d.=none detected",2642 ± 380 U/ml
same,IFNg,[16]; [18],672 ± 322 pg/mL
same,IL-5,[16]; [18],236 ± 87 pg/mL
"m-ODN: control mutated ODN 5′-TGACTGTGAAGGTTAGAGATGA-3′ that lacks ISS activity (DNA, all phosphorothioate, methylation of C not given here)",CTL response,[17],did not demonstrate an increased IFN-γ or CTL response
same,splenocyte IFN-γ response,[17],did not demonstrate an increased IFN-γ or CTL response

# — patent US20050004144A1, “Combined use of IMPDH inhibitors with toll-like receptor agonists” (REGENTS OF THE UNIVERSITY OF CALIFORNIA, priority 2003, published 2005)
